We go through 6 molecules from patent publication US11780893B2, “Kv1.3 blockers” (Zealand Pharma A/S, priority 2019, dated 2023).

Each structure is given as a SMILES string. Bridge positions count the residues as written; N and C are the ends. Square brackets hold non-standard residues; d marks the D form. Peptide text beside a SMILES is read from it. Nle = CCCC[C@H](N)C(=O)O

The target of assay [1] is T1, Kv1.1 (Homo sapiens, UniProt Q09470).
T1 construct: expressed in transfected cells; host or cells: Chinese Hamster Ovary (CHO)
T1 sequence (Q09470 whole entry): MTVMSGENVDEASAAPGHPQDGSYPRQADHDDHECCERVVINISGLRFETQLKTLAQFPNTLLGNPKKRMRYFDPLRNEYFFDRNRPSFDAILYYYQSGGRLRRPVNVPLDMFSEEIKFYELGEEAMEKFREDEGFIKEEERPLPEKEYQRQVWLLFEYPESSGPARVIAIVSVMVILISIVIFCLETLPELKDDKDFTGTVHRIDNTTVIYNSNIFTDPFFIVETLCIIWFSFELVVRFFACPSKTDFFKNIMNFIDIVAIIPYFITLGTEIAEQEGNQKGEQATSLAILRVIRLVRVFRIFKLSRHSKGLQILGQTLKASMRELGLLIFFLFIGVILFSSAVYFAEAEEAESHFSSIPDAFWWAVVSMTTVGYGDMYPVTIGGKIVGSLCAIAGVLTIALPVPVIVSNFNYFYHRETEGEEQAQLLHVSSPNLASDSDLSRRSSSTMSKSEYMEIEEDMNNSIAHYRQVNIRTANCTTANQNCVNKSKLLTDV
Kind of assay: cell-based. The conditions noted are these: for IC50: CHO cells, whole-cell patch clamp, read-out: Potency IC50 (nM) Kv1.1; for Selectivity Kv1.1/Kv1.3: ratio IC50[Kv1.1]/IC50[Kv1.3]. (In patch-clamp work, channel activity is measured electrically.)

Assay [2] deals with T2, Kv1.6 (Homo sapiens, UniProt P17658).
T2 construct: expressed in transfected cells; host or cells: Chinese Hamster Ovary (CHO)
T2 sequence (P17658 whole entry): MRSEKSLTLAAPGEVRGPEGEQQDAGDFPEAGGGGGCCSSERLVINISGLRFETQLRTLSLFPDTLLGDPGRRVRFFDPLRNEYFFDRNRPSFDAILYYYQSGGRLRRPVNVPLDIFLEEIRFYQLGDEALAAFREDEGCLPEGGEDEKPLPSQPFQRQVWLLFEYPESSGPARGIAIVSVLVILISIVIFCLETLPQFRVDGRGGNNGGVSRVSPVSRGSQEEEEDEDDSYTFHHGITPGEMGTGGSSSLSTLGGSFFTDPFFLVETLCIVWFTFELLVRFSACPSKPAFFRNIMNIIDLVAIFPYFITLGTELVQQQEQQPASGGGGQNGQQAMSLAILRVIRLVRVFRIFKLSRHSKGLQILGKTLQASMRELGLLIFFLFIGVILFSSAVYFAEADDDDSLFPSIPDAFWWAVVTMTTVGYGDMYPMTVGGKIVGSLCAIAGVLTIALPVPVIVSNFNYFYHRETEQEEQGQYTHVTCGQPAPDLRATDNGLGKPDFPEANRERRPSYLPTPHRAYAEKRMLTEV
Kind of assay: cell-based. Conditions: for IC50: CHO cells, whole-cell patch clamp, read-out: Potency IC50 (nM) Kv1.6; for Selectivity Kv1.6/Kv1.3: ratio IC50[Kv1.6]/IC50[Kv1.3].

Assay [3] has as its target Rat whole blood (Rattus norvegicus, UniProt P15384).
Assay [4] deals with T3, human Kv1.3 voltage-gated K+ channel (Homo sapiens, UniProt P22001).
T3 construct: host or cells: CHO-DUKX
T3 sequence (P22001 whole entry): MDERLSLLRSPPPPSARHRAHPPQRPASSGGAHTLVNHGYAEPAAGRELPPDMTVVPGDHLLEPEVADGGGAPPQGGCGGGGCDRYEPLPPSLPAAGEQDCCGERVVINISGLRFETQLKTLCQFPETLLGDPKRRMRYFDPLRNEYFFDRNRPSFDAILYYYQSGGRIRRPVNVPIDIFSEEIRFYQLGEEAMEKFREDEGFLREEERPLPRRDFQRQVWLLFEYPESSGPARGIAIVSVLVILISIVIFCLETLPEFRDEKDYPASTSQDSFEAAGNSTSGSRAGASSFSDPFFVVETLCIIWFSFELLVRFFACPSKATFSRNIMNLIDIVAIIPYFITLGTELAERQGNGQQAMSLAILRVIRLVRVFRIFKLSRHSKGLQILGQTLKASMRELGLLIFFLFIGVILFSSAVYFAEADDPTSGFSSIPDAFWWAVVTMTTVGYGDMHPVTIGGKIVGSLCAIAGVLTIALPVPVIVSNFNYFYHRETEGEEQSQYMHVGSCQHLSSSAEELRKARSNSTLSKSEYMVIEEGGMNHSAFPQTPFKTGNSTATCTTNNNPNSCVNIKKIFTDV
Kind of assay: cell-based. Conditions: inhibition of thallium flux, CHO-DUKX cells with human Kv1.3; read-out: IC50.

In assay [5] the target is T4, Kv1.2 (Homo sapiens, UniProt P16389).
T4 construct: expressed in transfected cells; host or cells: Chinese Hamster Ovary (CHO)
T4 sequence (P16389 whole entry): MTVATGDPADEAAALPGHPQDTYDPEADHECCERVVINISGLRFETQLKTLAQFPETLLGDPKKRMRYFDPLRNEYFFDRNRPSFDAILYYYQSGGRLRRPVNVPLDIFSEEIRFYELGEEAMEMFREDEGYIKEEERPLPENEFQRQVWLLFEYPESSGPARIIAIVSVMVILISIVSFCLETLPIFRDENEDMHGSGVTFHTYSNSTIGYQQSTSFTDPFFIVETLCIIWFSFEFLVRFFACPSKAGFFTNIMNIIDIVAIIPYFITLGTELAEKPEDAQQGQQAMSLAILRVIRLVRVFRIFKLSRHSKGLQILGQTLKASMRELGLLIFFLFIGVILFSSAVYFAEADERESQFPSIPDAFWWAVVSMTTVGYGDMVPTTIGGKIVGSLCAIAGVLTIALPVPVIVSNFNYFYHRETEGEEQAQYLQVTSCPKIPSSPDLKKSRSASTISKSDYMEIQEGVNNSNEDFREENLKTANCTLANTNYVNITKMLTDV
Kind of assay: cell-based. Conditions: CHO cells, whole-cell patch clamp; read-out: Potency IC50 (nM) Kv1.2.

For assay [6], the target named is T5, Kv1.3 (Homo sapiens, UniProt P22001).
T5 construct: expressed in transfected cells; host or cells: Chinese Hamster Ovary (CHO)
T5 sequence (P22001 whole entry): as the sequence (P22001 whole entry) above
Kind of assay: cell-based. Conditions: CHO cells, whole-cell patch clamp; read-out: Potency IC50 (nM) Kv1.3.

Chain of Rat whole blood (P15384 whole entry): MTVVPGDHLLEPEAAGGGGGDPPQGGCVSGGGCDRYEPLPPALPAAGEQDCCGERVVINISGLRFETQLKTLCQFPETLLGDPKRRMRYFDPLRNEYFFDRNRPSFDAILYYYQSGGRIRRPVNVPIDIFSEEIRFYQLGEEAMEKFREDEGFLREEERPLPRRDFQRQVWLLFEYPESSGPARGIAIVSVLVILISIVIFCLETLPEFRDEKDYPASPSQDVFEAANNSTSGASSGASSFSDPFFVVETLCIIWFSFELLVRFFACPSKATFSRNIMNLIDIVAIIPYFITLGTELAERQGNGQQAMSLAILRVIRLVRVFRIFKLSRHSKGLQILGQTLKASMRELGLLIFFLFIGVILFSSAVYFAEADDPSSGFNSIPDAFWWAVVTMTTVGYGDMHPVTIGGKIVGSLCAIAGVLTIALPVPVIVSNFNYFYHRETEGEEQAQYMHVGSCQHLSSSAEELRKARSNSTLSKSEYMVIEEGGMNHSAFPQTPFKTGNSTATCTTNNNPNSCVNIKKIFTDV

As usually defined, the IC50 is the concentration at which inhibition is half-maximal. Regarding `CC[C@H](C)[C@@H]1NC(=O)[C@H](C)NC(=O)[C@H](CCCCN)NC(=O)[C@H](CC(C)C)NC(=O)[C@@H]2CSSC[C@@H](C(=O)N[C@@H](Cc3ccc(O)cc3)C(=O)N3CCC[C@H]3C(=O)N[C@@H](CCCNC(=N)N)C(N)=O)NC(=O)[C@H](CCCCN)NC(=O)[C@@H]3CSSC[C@H](NC(=O)[C@H](CCC(=O)O)NC(=O)[C@H](C(C)C)NC(=O)[C@H](CO)NC(=O)[C@H]([C@@H](C)CC)NC(=O)[C@H](CO)NC(=O)[C@@H](NC(=O)[C@H](CCCNC(=N)N)NC(=O)[C@H](CCSC)NC(=O)[C@H](CC(=O)O)NC(=O)[C@H](CCSC)NC(=O)[C@@H](N)CC(N)=O)CSSC[C@H](NC(=O)[C@H](CCCCN)NC(=O)CNC(=O)[C@H](Cc4ccccc4)NC(=O)[C@H]([C@@H](C)CC)NC(=O)[C@H](CO)NC(=O)CNC1=O)C(=O)N[C@@H](CCSC)C(=O)N[C@@H](CC(N)=O)C(=O)N[C@@H](CCCCN)C(=O)N[C@@H](CCCCN)C(=O)N3)C(=O)N[C@@H](CCCCN)C(=O)N[C@@H](CCC(N)=O)C(=O)N[C@@H](CCCCN)C(=O)N2` [Compound 26] (H-NMDMRCSISVECKQKCLKAIGSIFGKCMNKKCKCYPR-NH2; disulfide 6-27, 12-32, 16-34), the IC50 in assay [1] was over 3000 nM; in assay [2], over 3000 nM; in assay [3] it was at most 1 nM; in assay [4], 0.092 nM; in assay [5], 43 nM; in assay [6], 0.26 nM. Further, the “Selectivity Kv1.1/Kv1.3” value in assay [1] is on record as over 11800. The “Selectivity Kv1.6/Kv1.3” value in assay [2] is over 11800.

Turning to `CCCC[C@@H]1NC(=O)[C@@H]2CSSC[C@H](NC(=O)[C@H](CCCNC(=N)N)NC(=O)[C@H](CCCC)NC(=O)[C@H](CC(=O)O)NC(=O)[C@H](CCCC)NC(=O)[C@@H](N)CC(N)=O)C(=O)N[C@@H](CO)C(=O)N[C@@H](C)C(=O)N[C@@H](CO)C(=O)N[C@@H](CCCCN)C(=O)N[C@@H](CCC(=O)O)C(=O)N[C@H]3CSSC[C@H](NC(=O)[C@H](CCCCN)NC(=O)[C@H](CCCCN)NC(=O)[C@H](CC(N)=O)NC1=O)C(=O)N[C@@H](CCCCN)C(=O)N[C@H](C(=O)N[C@@H](Cc1ccc(O)cc1)C(=O)N1CCC[C@H]1C(=O)N[C@@H](CCCNC(=N)N)C(N)=O)CSSC[C@H](NC(=O)[C@H](CCCCN)NC(=O)[C@H](CCC(N)=O)NC(=O)[C@H](CCCCN)NC3=O)C(=O)N[C@@H](CC(C)C)C(=O)N[C@@H](CCCCN)C(=O)N[C@@H](C)C(=O)N[C@@H]([C@@H](C)CC)C(=O)NCC(=O)N[C@@H](CO)C(=O)N[C@@H]([C@@H](C)CC)C(=O)N[C@@H](Cc1ccccc1)C(=O)NCC(=O)N[C@@H](CCCCN)C(=O)N2` [Compound 63] (H-N[Nle]D[Nle]RCSASKECKQKCLKAIGSIFGKC[Nle]NKKCKCYPR-NH2; disulfide 6-27, 12-32, 16-34), the half-maximal inhibitory concentration (IC50) in assay [1] is over 3000 nM; in assay [2], 1230 nM; in assay [3] it was at most 1 nM; in assay [4], 0.13 nM; in assay [5], 184 nM; in assay [6] it was 0.31 nM. The “Selectivity Kv1.1/Kv1.3” value in assay [1] was over 9600.

For `CCCC[C@@H]1NC(=O)[C@@H]2CSSC[C@H](NC(=O)[C@H](CCCCN)NC(=O)[C@H](CO)NC(C)=O)C(=O)N[C@@H](CO)C(=O)N[C@@H](C)C(=O)N[C@@H](CO)C(=O)N[C@@H](C(C)C)C(=O)N[C@@H](CCC(=O)O)C(=O)N[C@H]3CSSC[C@H](NC(=O)[C@H](CCCCN)NC(=O)[C@H](CCCCN)NC(=O)[C@H](CC(N)=O)NC1=O)C(=O)N[C@@H](CCCCN)C(=O)N[C@H](C(=O)N[C@@H](Cc1ccc(O)cc1)C(=O)N1CCC[C@H]1C(=O)N[C@@H](CCCNC(=N)N)C(N)=O)CSSC[C@H](NC(=O)[C@H](CCCCN)NC(=O)[C@H](CCC(N)=O)NC(=O)[C@H](CCCCN)NC3=O)C(=O)N[C@@H](CC(C)C)C(=O)N[C@@H](CCCCN)C(=O)N[C@@H](C)C(=O)N[C@@H]([C@@H](C)CC)C(=O)NCC(=O)N[C@@H](CO)C(=O)N[C@@H]([C@@H](C)CC)C(=O)N[C@@H](Cc1ccccc1)C(=O)NCC(=O)N[C@@H](CCCCN)C(=O)N2` [Compound 107] (Ac-SKCSASVECKQKCLKAIGSIFGKC[Nle]NKKCKCYPR-NH2; disulfide 3-24, 9-29, 13-31), the IC50 in assay [1] is over 3000 nM; in assay [2], 1450 nM; in assay [3] it was at most 1 nM; in assay [4], 0.084 nM; in assay [5], 196 nM; in assay [6], 1 nM. Moreover, the “Selectivity Kv1.1/Kv1.3” value in assay [1] is over 3000.

Turning to `CC[C@H](C)[C@@H]1NC(=O)[C@H](C)NC(=O)[C@H](CCCCN)NC(=O)[C@H](CC(C)C)NC(=O)[C@@H]2CSSC[C@@H](C(=O)N[C@@H](Cc3ccc(O)cc3)C(=O)N3CCC[C@H]3C(=O)N[C@@H](CCCNC(=N)N)C(N)=O)NC(=O)[C@H](CCCCN)NC(=O)[C@@H]3CSSC[C@H](NC(=O)[C@H](CCC(=O)O)NC(=O)[C@H](CCCNC(=N)N)NC(=O)[C@H](CO)NC(=O)[C@H](C)NC(=O)[C@H](CO)NC(=O)[C@@H](NC(=O)[C@H](CCCNC(=N)N)NC(=O)[C@H](CCSC)NC(=O)[C@H](CC(=O)O)NC(=O)[C@H](CCSC)NC(=O)[C@@H](N)CC(N)=O)CSSC[C@H](NC(=O)[C@H](CCCCN)NC(=O)CNC(=O)[C@H](Cc4ccccc4)NC(=O)[C@H]([C@@H](C)CC)NC(=O)[C@H](CO)NC(=O)CNC1=O)C(=O)N[C@@H](CCSC)C(=O)N[C@@H](CC(N)=O)C(=O)N[C@@H](CCCCN)C(=O)N[C@@H](CCCCN)C(=O)N3)C(=O)N[C@@H](CCCCN)C(=O)N[C@@H](CCC(N)=O)C(=O)N[C@@H](CCCCN)C(=O)N2` [Compound 27] (H-NMDMRCSASRECKQKCLKAIGSIFGKCMNKKCKCYPR-NH2; disulfide 6-27, 12-32, 16-34), the IC50 is over 3000 nM in assay [1]; 206 nM in assay [2]; at most 1 nM in assay [3]; 0.065 nM in assay [4]; 11 nM in assay [5]; 0.12 nM in assay [6]. Besides, the “Selectivity Kv1.1/Kv1.3” value in assay [1] was over 25900.

On to `CC[C@H](C)[C@@H]1NC(=O)[C@H](C)NC(=O)[C@H](CCCCN)NC(=O)[C@H](CC(C)C)NC(=O)[C@@H]2CSSC[C@@H](C(=O)N[C@@H](Cc3ccc(O)cc3)C(=O)N3CCC[C@H]3C(=O)N[C@@H](CCCNC(=N)N)C(N)=O)NC(=O)[C@H](Cc3c[nH]cn3)NC(=O)[C@@H]3CSSC[C@H](NC(=O)[C@H](CCC(=O)O)NC(=O)[C@H](C(C)C)NC(=O)[C@H](CO)NC(=O)[C@H](C)NC(=O)[C@H](CO)NC(=O)[C@@H](NC(=O)[C@H](CCCNC(=N)N)NC(=O)[C@H](CCSC)NC(=O)[C@H](CC(=O)O)NC(=O)[C@H](CCSC)NC(=O)[C@@H](N)CC(N)=O)CSSC[C@H](NC(=O)[C@H](CCCCN)NC(=O)CNC(=O)[C@H](Cc4ccccc4)NC(=O)[C@H]([C@@H](C)CC)NC(=O)[C@H](CO)NC(=O)CNC1=O)C(=O)N[C@@H](CCSC)C(=O)N[C@@H](CC(N)=O)C(=O)N[C@@H](CCCCN)C(=O)N[C@@H](CCCCN)C(=O)N3)C(=O)N[C@@H](CCCCN)C(=O)N[C@@H](CCC(N)=O)C(=O)N[C@@H](CCCCN)C(=O)N2` [Compound 37] (H-NMDMRCSASVECKQKCLKAIGSIFGKCMNKKCHCYPR-NH2; disulfide 6-27, 12-32, 16-34), for which the IC50 was over 3000 nM in assay [1]; over 3000 nM in assay [2]; at most 1 nM in assay [3]; 0.14 nM in assay [4]; 338 nM in assay [5]; 0.19 nM in assay [6]. The “Selectivity Kv1.1/Kv1.3” value in assay [1] was over 16100. For the same molecule, the “Selectivity Kv1.6/Kv1.3” value in assay [2] is reported as over 16100.

Take `CCCC[C@@H]1NC(=O)[C@@H]2CSSC[C@H](NC(=O)[C@H](CCCNC(=N)N)NC(=O)[C@H](CCCC)NC(=O)[C@H](CC(=O)O)NC(=O)[C@H](CCCC)NC(=O)[C@@H](N)CC(N)=O)C(=O)N[C@@H](CCCNC(=N)N)C(=O)N[C@@H](C)C(=O)N[C@@H](CO)C(=O)N[C@@H](C(C)C)C(=O)N[C@@H](CCC(=O)O)C(=O)N[C@H]3CSSC[C@H](NC(=O)[C@H](CCCCN)NC(=O)[C@H](CCCCN)NC(=O)[C@H](CC(N)=O)NC1=O)C(=O)N[C@@H](CCCCN)C(=O)N[C@H](C(=O)N[C@@H](Cc1ccc(O)cc1)C(=O)N1CCC[C@H]1C(=O)N[C@@H](CCCNC(=N)N)C(N)=O)CSSC[C@H](NC(=O)[C@H](CCCCN)NC(=O)[C@H](CCC(N)=O)NC(=O)[C@H](CCCCN)NC3=O)C(=O)N[C@@H](CC(C)C)C(=O)N[C@@H](CCCCN)C(=O)N[C@@H](C)C(=O)N[C@@H]([C@@H](C)CC)C(=O)NCC(=O)N[C@@H](CO)C(=O)N[C@@H]([C@@H](C)CC)C(=O)N[C@@H](Cc1ccccc1)C(=O)NCC(=O)N[C@@H](CCCCN)C(=O)N2` [Compound 42] (H-N[Nle]D[Nle]RCRASVECKQKCLKAIGSIFGKC[Nle]NKKCKCYPR-NH2; disulfide 6-27, 12-32, 16-34): the IC50 was over 3000 nM in assay [1]; 316 nM in assay [2]; at most 1 nM in assay [3]; 0.087 nM in assay [4]; 109 nM in assay [5]; 0.16 nM in assay [6]. In addition, in assay [1], the “Selectivity Kv1.1/Kv1.3” value is recorded as over 18600.
